Tested on: MM.1S multiple myeloma cells
Assay: Disseminated MM.1S multiple myeloma model in NSG mice
Type: in vivo
Source text: Female NOD severe combined immune deficient (SCID) gamma (NSG) mice 8-9 weeks of age were inoculated with 5×10^6 multiple myeloma MM.1S cells into the tail vein. Randomization by body weight and start of treatment was initiated 7 days post tumor inoculation. The treatment groups are outlined in Table 10. […] Groups 1-10 (n=6/group) were monitored for survival endpoint characterized by >20% body weight loss and clinical signs including lethargy, hind limb paralysis or moribundity. Groups 11-20 (n=3/group) were used for bone marrow harvest and analysis of tumor burden on day 28 post tumor cell inoculation. For all groups, body weights were monitored 1-2×/week.
Tumor burden was assessed and quantified by detection of hCD138 positive (hCD138+) cells in the bone marrow. Bone marrow cells from mouse femur and tibia were pooled and assessed for human CD138+ expression using the Alexa Fluor 647 mouse anti-human CD138 clone MI15 (BD Biosciences #562097) according to the manufacturer's protocol. […] Data was analyzed using Flowjo (Tree Star, Inc., Ashland, Oreg.).
Female NOD severe combined immune deficient (SCID) gamma (NSG) mice 9-12 weeks of age were inoculated with 5×10^6 multiple myeloma MM.1S cells into the tail vein. […] Body weights were monitored 1-2×/week. […]

| Compound | mean survival (Example 9, 0.8 mg/kg Velcade q7dx2 IP, vehicle 30.6 days) [days] | effect on survival compared to vehicle control (Example 9, single agent at 3 or 10 mg/kg, single IP) |
| --- | --- | --- |
| CC(C)C[C@H](NC(=O)[C@H](Cc1ccccc1)NC(=O)c1cnccn1)B(O)O [Velcade, bortezomib] | 40.6 |  |
| Daratumumab: MM standard of care agent, clinical grade Daratumumab |  | no significant effect on survival compared to vehicle control |
